Laboratory results as given in patent publication US20250145622A1, “SOLID FORMS OF A TRIAZINE DERIVATIVE AS CBL-B MODULATOR” (HOTSPOT THERAPEUTICS, INC., priority 2022, published 2025).
Converted amounts (≈) assume the structure as drawn. “Also recorded” adds a separate entry of the source. Read-outs that look alike come from different tables or passages of the source. Values belong to the molecule of their own block, whether it stands above or below them.

What was measured:
Type in all cases: physicochemical
[1] = Solubility determination by solvent addition (visual assessment); conditions: thermodynamic from solid
Description: Aliquots of various solvents were added to measured amounts of the anhydrous crystalline form of the compound of formula (I) at various temperatures with sonication or stirring. Solubilities were calculated based on the total solvent used to give a solution; actual solubilities may be greater because of the volume of solvent portions utilized or a slow rate of dissolution. […] If dissolution occurred at the first aliquot the value was reported as “>”.

[2] = Dynamic vapor sorption (DVS), water sorption isotherm
[3] = as above; remark: listed apart in the source
Description: Vapor sorption data were collected on a Surface Measurement System DVS Intrinsic instrument. Samples were not dried prior to analysis. Sorption and desorption data were collected over a range from 5% to 95% RH at 10% RH increments under a nitrogen purge. The equilibrium criterion used for analysis was less than 0.0100% weight change in 5 minutes with a maximum equilibration time of 3 hours.

solubility ([1]; water, 25° C., by solvent addition, read-out: aqueous solubility): > 111 mg/mL
SMILES: C[C@H]1CCCN(Cc2cc(C(F)(F)F)c3cn(-c4cccc([C@H](c5nncn5C)C5CCC5)c4)c(=O)n3c2)C1

total water gained ([2]; 5% to 96% RH): 7.6 moles of water | total weight gained ([2]; 5% to 96% RH): 15.8% | weight gain ([2]; from 75% to 96% RH): 14.6 % wt. | solubility ([1]; aqueous with cosolvent or surfactant or cyclodextrin, solvent Water/EtOH (20/80 v/v), read-out: Solubility): > 29 mg/mL | solubility ([1]; aqueous with cosolvent or surfactant or cyclodextrin, solvent Water/EtOH (40/60 v/v), read-out: Solubility): > 36 mg/mL | solubility ([1]; aqueous with cosolvent or surfactant or cyclodextrin, solvent Water/EtOH (50/50 v/v), read-out: Solubility): 9 mg/mL (≈ 16.7 mM) | solubility ([1]; aqueous with cosolvent or surfactant or cyclodextrin, solvent Water/EtOH (60/40 v/v), read-out: Solubility): < 4 mg/mL | solubility ([1]; aqueous with cosolvent or surfactant or cyclodextrin, solvent Water/IPA (20/80 v/v), read-out: Solubility): > 30 mg/mL | solubility ([1]; aqueous with cosolvent or surfactant or cyclodextrin, solvent Water/IPA (40/60 v/v), read-out: Solubility): > 37 mg/mL | solubility ([1]; aqueous with cosolvent or surfactant or cyclodextrin, solvent Water/IPA (60/40 v/v), read-out: Solubility): 9 mg/mL (≈ 16.7 mM) | solubility ([1]; aqueous with cosolvent or surfactant or cyclodextrin, solvent Water/MeOH (20/80 v/v), read-out: Solubility): > 29 mg/mL | solubility ([1]; aqueous with cosolvent or surfactant or cyclodextrin, solvent Water/MeOH (40/60 v/v), read-out: Solubility): 7 mg/mL (≈ 13 mM) | solubility ([1]; aqueous with cosolvent or surfactant or cyclodextrin, solvent Water/MeOH (60/40 v/v), read-out: Solubility): < 3 mg/mL | solubility ([1]; organic solvent or mixture, solvent ACN, read-out: Solubility): 85 mg/mL (≈ 158 mM) | solubility ([1]; organic solvent or mixture, solvent Acetone, read-out: Solubility): 31 mg/mL (≈ 57.6 mM) | solubility ([1]; organic solvent or mixture, solvent DCM, read-out: Solubility): > 100 mg/mL | solubility ([1]; organic solvent or mixture, solvent DIPE, read-out: Solubility): < 2 mg/mL | solubility ([1]; organic solvent or mixture, solvent EtOAc, read-out: Solubility): 38 mg/mL (≈ 70.6 mM) | solubility ([1]; organic solvent or mixture, solvent EtOH, read-out: Solubility): 99 mg/mL (≈ 184 mM) | solubility ([1]; organic solvent or mixture, solvent Heptane, read-out: Solubility): < 1 mg/mL | solubility ([1]; organic solvent or mixture, solvent IPA, read-out: Solubility): 79 mg/mL (≈ 147 mM) | solubility ([1]; organic solvent or mixture, solvent MTBE, read-out: Solubility): 4 mg/mL (≈ 7.43 mM) | solubility ([1]; organic solvent or mixture, solvent MeOH, read-out: Solubility): 91 mg/mL (≈ 169 mM) | solubility ([1]; organic solvent or mixture, solvent THF, read-out: Solubility): 95 mg/mL (≈ 176 mM) | solubility ([1]; organic solvent or mixture, solvent Toluene, read-out: Solubility): 99 mg/mL (≈ 184 mM) | solubility ([1]; solvent Water, read-out: Solubility): < 1 mg/mL | XRPD analysis on the post-DVS sample (solid form) ([3]; after DVS): amorphous | weight gain ([3]; from 5% to 74% RH): 1.2 % wt. | water taken up during sorption ([3]; from 5 to 95% RH): 0.1 moles of water per mole of API | weight gain during the sorption step ([3]; from 5 to 95% relative humidity (RH)): 0.4% | appearance of sample after DVS ([3]; upon desorption): signs of partial deliquescence | hygroscopicity classification ([3]; water sorption isotherm, Ph. Eur. 10.0 classes): slightly hygroscopic
SMILES: C[C@H]1CCCN(Cc2cc(C(F)(F)F)c3cn(-c4cccc([C@H](c5nncn5C)C5CCC5)c4)c(=O)n3c2)C1 [2-(3-((R)-cyclobutyl(4-methyl-4H-1,2,4-triazol-3-yl)methyl)phenyl)-6-(((S)-3-methylpiperidin-1-yl)methyl)-8-(trifluoromethyl)imidazo[1,5-a]pyridin-3(2H)-one]
hysteresis on desorption ([3]; desorption step): very minor hysteresis; also recorded: Significant hysteresis
